Columns and labels:
[1] = system: B. napus wild type line SR002201 (NCIMB 41813); assay: ALS-inhibitor herbicide injury on B. napus, greenhouse spray trial, visual scoring; format: in vivo, Brassica napus
Protocol: (§1) The individual components herbicide and surfactant with regard to type and application rate as stated in table I were added with stirring to a water application rate of 300 l/ha so that a homogeneous spray mixture was formed.
(§2) Seeds of B. napus were sown in a sandy loam soil and placed in a climate chamber in a greenhouse under good growth conditions (16 h light, temperature day 14° C., night: 8° C.). The plants were grown up to growth stage of BBCH 12 to BBCH 13. […] After the treatment, the plants were returned to the climate chamber.
(§3) Visual scoring was carried out using a percentage scale of 0%=no damage to 100%=all plants dead.

[2] = system: B. napus mutant FM 202 (ALS I A190V, ALS III W556L); assay: as above; format: in vivo, Brassica napus
Protocol: as §1, §2, §3

[3] = system: plants regenerated from the clone FM202; assay: Growth of regenerated plants in presence of herbicide; format: cell-based, Brassica napus; details: high concentration of ALS inhibitor (selection at 10^−4 M)
[4] = system: B. napus plants of the present invention; assay: Sensitivity to ALS inhibitor herbicide compared to wild type; set-up: species or system Brassica napus; details: B. napus plant described in the Examples vs wild type
[5] = Brassica napus, 336 h, 30 g a.i./ha, spray at BBCH 12-13 with Mero 1 l/ha, visual scoring 14 days after application, 0%=no damage, 100%=all plants dead
[6] = Brassica napus, 336 h, 35 g a.i./ha, spray at BBCH 12-13 with Mero 1 l/ha, visual scoring 14 days after application, 0%=no damage, 100%=all plants dead
[7] = Brassica napus, 336 h, 7 g a.i./ha, spray at BBCH 12-13 with Mero 1 l/ha, visual scoring 14 days after application, 0%=no damage, 100%=all plants dead
[8] = 15 g a.i./ha, spray at BBCH 12-13 with Mero 1 l/ha, visual scoring 14 days after application, 0%=no damage, 100%=all plants dead
[9] = 20 g a.i./ha, spray at BBCH 12-13 with Mero 1 l/ha, visual scoring 14 days after application, 0%=no damage, 100%=all plants dead
[10] = 30 g a.i./ha, spray at BBCH 12-13 with Mero 1 l/ha, visual scoring 14 days after application, 0%=no damage, 100%=all plants dead

COc1cc(OC)nc(NC(=O)NS(=O)(=O)N(C)S(C)(=O)=O)n1 [Amidosulfuron]
pest or weed control at 30 g/ha [1, 5]: 93% | pest or weed control at 30 g/ha [2, 5]: 0%

COc1nc(C)nc(NC(=O)NS(=O)(=O)c2ccccc2Cl)n1 [Chlorsulfuron]
Herbicide injury on B. napus FM 202 ([2]; 9 g a.i./ha, spray at BBCH 12-13 with Mero 1 l/ha, visual scoring 14 days after application, 0%=no damage, 100%=all plants dead): 0%

COc1cc(OC)nc(NC(=O)[N-]S(=O)(=O)c2ncccc2C2=NOCCO2)n1.[Na+] [Compound of formula (I)]
growth of plants regenerated from clone FM202 in presence of the ALS inhibitor [3]: able to grow

CCOc1ccccc1OS(=O)(=O)NC(=O)Nc1nc(OC)cc(OC)n1 [Ethoxysulfuron]
Herbicide injury on B. napus FM 202 ([2]; 60 g a.i./ha, spray at BBCH 12-13 with Mero 1 l/ha, visual scoring 14 days after application, 0%=no damage, 100%=all plants dead): 0%

COc1cc(OC)nc(NC(=O)NS(=O)(=O)c2cc(NC=O)ccc2C(=O)N(C)C)n1 [Foramsulfuron]
pest or weed control at 35 g/ha [1, 6]: 75% | pest or weed control at 35 g/ha [2, 6]: 0% | times less sensitive to the ALS inhibitor herbicide compared to the wild type enzyme [4]: at least 1000 times

COCc1cnc(C2=NC(C)(C(C)C)C(=O)N2)c(C(=O)O)c1 (stereo not drawn) [Imazamox]
Herbicide injury on B. napus FM 202 ([2]; 40 g a.i./ha, spray at BBCH 12-13 with Mero 1 l/ha, visual scoring 14 days after application, 0%=no damage, 100%=all plants dead): 0%

COc1nc(C)nc(NC(=O)NS(=O)(=O)c2cc(I)ccc2C(=O)O)n1 [Iodosulfuron]
pest or weed control at 7 g/ha [1, 7]: 95% | pest or weed control at 7 g/ha [2, 7]: 0%

COc1cc(OC)nc(NC(=O)NS(=O)(=O)c2cc(CNS(C)(=O)=O)ccc2C(=O)O)n1 [Mesosulfuron]
Herbicide injury on B. napus SR002201 [1, 8]: 90% | Herbicide injury on B. napus FM 202 [2, 8]: 0%

COc1nc(C)nc(=NC(=O)NS(=O)(=O)c2ccccc2C(=O)O)[nH]1 [Metsulfuron]
pest or weed control at 8 g/ha ([1]; Brassica napus, 336 h, read-out: Herbicide injury on B. napus SR002201): 93% | pest or weed control at 8 g/ha ([2]; Brassica napus, 336 h, read-out: Herbicide injury on B. napus FM 202): 0%

COc1nn(C(=O)NS(=O)(=O)c2c(C(=O)O)csc2C)c(=O)n1C [Thiencarbazone]
Herbicide injury on B. napus SR002201 [1, 9]: 90% | Herbicide injury on B. napus FM 202 [2, 9]: 0%

COc1nc(C)nc(N(C)C(=O)NS(=O)(=O)c2ccccc2C(=O)O)n1 [Tribenuron]
Herbicide injury on B. napus SR002201 [1, 10]: 95% | Herbicide injury on B. napus FM 202 [2, 10]: 3%

Cc1cccc(C(=O)O)c1S(=O)(=O)NC(=O)Nc1nc(OCC(F)(F)F)nc(N(C)C)n1 [Triflusulfuron]
Herbicide injury on B. napus SR002201 [1, 9]: 65% | Herbicide injury on B. napus FM 202 [2, 9]: 0%
